Patent publication US10376520B2, “Methods for the treatment of cardiovascular disorders” (Galapagos NV, priority 2015, dated 2019)

Tests used:
RA patients [1] = assay: [HDL] cholesterol level (Selectra autoanalyzer), Study 4; type: in vivo, human; conditions: for HDL level, 4 weeks CFB: 4 weeks change from baseline
Protocol: Randomized double-blind, placebo-controlled add on study in subjects with active RA who have an inadequate response to MTX monotherapy, in combination with methotrexate, administered for 4 weeks in the treatment of subjects with active rheumatoid arthritis who have an inadequate response to methotrexate alone.
Compound 1 (dosed as a [Compound 1:HCl:3H2O]) capsules administered orally in 30 mg, 75 mg, 150 mg, or 300 mg doses per day for 4 weeks.
Triglycerides, [HDL] cholesterol, and plasma cholesterol were measured on the Selectra autoanalyzer (Sopachem BV, 44-RI Straat 33, 4051 AP Ochten, The Netherlands). All assays were commercially available from DiaSys Diagnostic Systems GmbH, Alte Strasse 9, 65558 Holzheim, Germany.

RA patients [2] = assay: CRP analysis (immunoturbidimetric assay), Study 2; type: in vivo, human; conditions: 50 mg q.d.
Protocol: Double-blind, placebo-controlled, monotherapy study in subjects with moderately to severely active RA who have an inadequate response to methotrexate (MTX) (oral or parenteral).
Twelve weeks of treatment with Compound 1 (dosed as a [Compound 1:HCl:3H2O]) at 50 mg, 100 mg, or 200 mg q.d.; or placebo. At Week 12, all subjects on placebo and the subjects on the 50 mg dose who have not achieved 20% improvement in swollen joint count (SJC66) and tender joint count (TJC68) will be assigned to 100 mg q.d. in a blinded fashion and will continue treatment until Week 24. Subjects in the other groups will maintain their randomized treatment until Week 24.
The determination of CRP is made using Immunoturbidimetric assay for the in vitro quantitative determination of CRP in human serum and plasma on Roche/Hitachi cobas c systems, wherein human CRP agglutinates with latex particles coated with monoclonal anti-CRP antibodies. The aggregates are determined turbidimetrically (Eda et al., 1998; Price et al., 1987).
Human serum and plasma samples [CRP] determination was done on a Roche/Hitachi Cobas c 301 c 501/502 system which automatically calculate the analyte concentration of each sample. Samples containing precipitates are centrifuged before performing the assay.
The Hommel-corrected p-value for the pairwise comparisons of each group with placebo is shown. […]

For O=C(Nc1nc2cccc(-c3ccc(CN4CCS(=O)(=O)CC4)cc3)n2n1)C1CC1 [Compound 1, cyclopropanecarboxylic acid {5-[4-(1,1-dioxo-thiomorpholin-4-ylmethyl)-phenyl]-[1,2,4]triazolo[1,5-a]pyridin-2yl}-amide], the “HDL level, 4 weeks CFB” value (RA patients [1]; 30 mg q.d.) was 6.7%, the HDL level, Baseline (RA patients [1]; 30 mg q.d.) was 0.9 mM and the HDL level, week 4 (RA patients [1]; 30 mg q.d.) was 1 mM. For the same molecule, the “HDL level, 4 weeks CFB” value (RA patients [1]; 75 mg q.d.) was 13.7%, the HDL level, Baseline (RA patients [1]; 75 mg q.d.) was 1 mM and the HDL level, week 4 (RA patients [1]; 75 mg q.d.) was 1.1 mM. For the same molecule, the “HDL level, 4 weeks CFB” value (RA patients [1]; 150 mg q.d.) was 10.7%, the HDL level, Baseline (RA patients [1]; 150 mg q.d.) was 1 mM and the HDL level, week 4 (RA patients [1]; 150 mg q.d.) was 1.1 mM. For the same molecule, the “HDL level, 4 weeks CFB” value (RA patients [1]; 300 mg q.d.) was 46.0%, the HDL level, Baseline (RA patients [1]; 300 mg q.d.) was 1 mM and the HDL level, week 4 (RA patients [1]; 300 mg q.d.) was 1.4 mM. For the same molecule, the “CRP mean CFB (LOCF)” value (RA patients [2]; week 1) was -3.70 mg/L and the “CRP mean CFB (LOCF)” value (RA patients [2]; week 12) was -4.43 mg/L.
